Measurements published in patent US12010991B1, “Microemulsion with disinfectant properties” (priority 2021, dated 2024).
Where two headings read alike, the source gives them in different places.

Compound: Cc1ccc(C(C)C)cc1O [Example 2, Carvacerol]
- H2O (clarity) (Solvent C8-10 Acid Ethanol, Surfactant/Solubilizer Polysorbate 20): Clear
- H2O (clarity) (Solvent Ethanol, Surfactant/Solubilizer Polysorbate 20): Cloudy
- H2O (clarity) (Solvent NONE, Surfactant/Solubilizer Polysorbate 20 Polysorbate 80): Clear
- H2O (clarity) (Solvent NONE, Surfactant/Solubilizer Quat 242 Ti-Nat): Clear
- H2O (clarity) (Solvent Propanediol, Surfactant/Solubilizer AB-1 (first entry)): Not Clear
- H2O (clarity) (Solvent Propanediol, Surfactant/Solubilizer AB-1 (second entry)): Not Clear
- H2O (clarity) (Solvent Propanediol, Surfactant/Solubilizer Polyglycerol): Not Clear
- H2O (clarity) (Solvent Propanediol, Surfactant/Solubilizer Polyglycerol D9): Not Clear
- H2O (clarity) (Solvent Propanediol, Surfactant/Solubilizer Polyglycerol D9 SugarNate): Not Clear
- H2O (clarity) (Solvent Propanediol, Surfactant/Solubilizer Quat 242 Ti-Nat): Not Clear
- H2O (clarity) (Solvent Propanediol, Surfactant/Solubilizer Quat 242 Ti-Nat AB-1): Not Clear
- H2O (clarity) (Solvent Propanediol, Surfactant/Solubilizer SugaNate 160): Not Clear
